We go through 28 molecules from PubChem BioAssay (NCI).

Assay in all cases: growth of human tumour cells (NCI), 48 h
Experiment [1] has as its system COLO 205 colon.
Experiment [2] concerns HOP-92 NSCLC.
For experiment [3], the system named is NCI-H460 lung.
For experiment [4], the system named is OVCAR-3 ovarian.
For experiment [5], the system named is HCC-2998 colon.
The test system of experiment [6] is NCI-H226 lung.
Experiment [7] concerns NCI-H23 lung.
Experiment [8] deals with SN12C renal.
Experiment [9] concerns UACC-62 melanoma.

Values joined by “and” are separate entries in the source; they are usually repeats but may differ in a detail not shown here. Equal entries are not always repeated.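 The compound was tested at five concentrations on cells cultured in 96-well plates, with a 48-hour exposure period. GI50 marks 50% less growth. TGI denotes the concentration required for complete inhibition of growth.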

With `N#Cc1c2ccccc2c2nnc3cc(C(F)(F)F)ccc3n12`, the GI50 in experiment [1] was 37400 nM; in [2], 51.5 µM; in [3], 37.1 µM; in [4] it was 79900 nM. Also, the TGI in experiment [1], in [2], in experiment [3] and in [4] was over 100 µM throughout.

Turning to `Cc1cc(N(CCC#N)CCC#N)ccc1N=Nc1ccccc1[N+](=O)[O-]`, the TGI in experiment [1], in [5], in [6], in experiment [7], in [4] and in experiment [8] was over 100 µM in each case. Further, the TGI in [9] was over 100 µM.

For `CC1=CCP(C(F)(F)F)P(C(F)(F)F)C1` (configuration not stated), the TGI in experiment [1], in experiment [5], in [2], in [6], in [7] and in experiment [3] was over 100 µM in each case. Moreover, the TGI in experiment [4], in experiment [8] and in [9] was over 100 µM in each case.

As to `C=CC[P@@]1(=O)O[C@H](c2ccccc2)C(C)N1C(C)C` (some centres not stated), the TGI in [5], in experiment [6], in experiment [7], in experiment [3], in experiment [4] and in experiment [8] was over 100 µM each time. The molecule also showed a TGI in experiment [9] of over 100 µM.

With `COC(=O)C1Cc2c(n(C)c3ccccc23)C(c2ccccc2)N1` (configuration not stated), the TGI in experiment [1], in experiment [5], in experiment [2], in experiment [6], in experiment [7] and in [3] was over 100 µM throughout. Also, the TGI in experiment [4], in experiment [8] and in experiment [9] was over 100 µM throughout.

Turning to `CC(C)(C)c1ccc(Oc2ccc(C#N)c(C#N)c2)c(C(C)(C)C)c1`, the TGI was over 59.1 µM in experiment [1]; over 100 µM in experiment [5]; over 100 µM in experiment [2]; over 100 µM in experiment [6]; over 100 µM in [7]; over 71.1 µM in experiment [3]. In addition, the TGI in experiment [4], in experiment [8] and in experiment [9] was over 100 µM each time.

`O=C(c1ccccc1)c1ccc2cccc(O)c2n1`: the TGI in [1], in [5], in experiment [6], in experiment [7], in [4] and in [8] was over 100 µM in each case. In experiment [9], the TGI is over 100 µM.

For the molecule `CCOC(=O)c1[nH]c2cccc3c2c1CC(Br)C3=O` (configuration not stated), the TGI is 27.2 µM in experiment [1]; 29.8 µM in experiment [5]; 33.6 µM in experiment [2]; 37.2 µM in [6]; 35.9 µM in experiment [7]; 47.8 µM in experiment [3]. Moreover, the TGI in experiment [4] stood at 26.2 µM; in [8], 30.9 µM.

As to `COc1c2c(c(OC)c3c(=O)cc(C/C(=N/NC(=O)C[n+]4ccccc4)C(=O)Nc4cc(C)ccc4C)oc13)OCO2`, the TGI in [1], in experiment [5], in experiment [2], in experiment [7], in [3] and in experiment [4] was over 100 µM each time. Moreover, the TGI in experiment [8] and in experiment [9] was over 100 µM throughout.

As for `O=C1C2c3[nH]c4ccccc4c3C3CCSCC3C2C(=O)N1c1ccccc1` (configuration not stated), the TGI in [1], in experiment [2], in experiment [6], in [7], in [3] and in experiment [4] was over 100 µM each time. Further, the TGI in experiment [8] and in [9] was over 100 µM each time.

On to `Cc1ccc(C)c(NC(=O)CC2C(=O)Nc3ccccc3S2(=O)=O)c1` (configuration not stated), for which the TGI in experiment [5], in [2], in experiment [6], in experiment [7], in experiment [3] and in experiment [4] was over 100 µM each time. Besides, the TGI in experiment [8] and in experiment [9] was over 100 µM throughout.

For `COCC1N=C(c2ccc(OC)c(OCc3ccccc3)c2OC)O[C@H]1c1ccccc1` (some centres not stated), the TGI in experiment [1] was 41.8 µM; in experiment [5], over 100 µM; in experiment [2] it was 42.4 µM; in [6] it was 81.1 µM; in experiment [7] it was over 100 µM; in experiment [3], 35 µM. Moreover, the TGI stood at 55 µM in experiment [4], 66.4 µM in [8] and 51.5 µM in [9].

`N.N.NCCCCN.O=C([O-])CC(=O)[O-].O=C([O-])CC(=O)[O-].[Pt+4].[Pt+4]`: the GI50 in experiment [1] was over 100000 nM; in experiment [5], 97300 nM; in experiment [2], over 100 µM; in experiment [6] it was over 100000 nM; in experiment [7] it was 89100 nM; in experiment [3] it was 9.62 µM. Moreover, the GI50 was over 100000 nM in [4], 58.5 µM in [8] and 77400 nM in [9]. Also, the TGI in experiment [1], in experiment [5], in experiment [2], in experiment [6], in experiment [7] and in [3] was over 100 µM in each case. The TGI in [4], in experiment [8] and in experiment [9] was over 100 µM in each case.

Turning to `N#C[C@]12CC3(CC[C@H]1CC1(C2)OCCO1)OCCO3`, the TGI in experiment [1], in experiment [5], in experiment [6], in experiment [3], in [4] and in [8] was over 100 µM in each case. The TGI in experiment [9] was over 100 µM.

As to `Brc1nc2c3ccccc3ncn2c1Br`, the TGI in experiment [1] is 29.8 µM; in experiment [5], over 100 µM; in experiment [2] it was 76.5 µM; in experiment [6], over 100 µM; in experiment [7], 56.1 µM; in [3], over 100 µM. Further, the TGI in experiment [4] was 22.5 µM; in [8] it was over 100 µM; in experiment [9], 49.2 µM.

`Cc1c2cc[n+](C)cc2c(C)c2c1[nH]c1ccc(OC(C)C)cc12`: the TGI is 3.08 µM and 2.97 µM in experiment [1]; 9.95 µM and 20 µM in [5]; 13.5 µM and 16.8 µM in experiment [2]; 2.42 µM and 6.12 µM in [6]; 5.08 µM and 7.09 µM in experiment [7]; 11.8 µM and 13.6 µM in experiment [3]. Moreover, the TGI in experiment [4] was 14.6 µM and 26.7 µM; in [8], 7.69 µM and 9.59 µM; in experiment [9], 8.04 µM and 12.7 µM. The GI50 is 2870 nM and 6450 nM in experiment [5]; 395 nM and 1070 nM in experiment [6].

On to `CCCCCCC(O)C/C=C/CCCCCC/C(C(=O)OC)=C(/O)C(=O)OCC` (configuration not stated), for which the TGI in [1], in experiment [5], in [2], in experiment [6], in experiment [7] and in experiment [3] was over 100 µM in each case. The TGI in experiment [4], in experiment [8] and in experiment [9] was over 100 µM throughout.

Regarding `O=C(Nc1ccccc1)O/N=C1/CCCC/C1=C\c1ccccc1`, the TGI in [1] is 28.2 µM; in [5] it was 41.7 µM; in [2], 46 µM; in [6] it was 49.6 µM; in experiment [7] it was 48.8 µM; in [3], 28.3 µM. The TGI was 28.5 µM in experiment [4], 31 µM in experiment [8] and 30 µM in experiment [9].

Regarding `COC(=O)/C=C1\SC(=Nc2ccc(C(F)(F)F)cc2)N(CCc2c[nH]c3ccccc23)C1=O`, the GI50 in experiment [1] was 1880 nM; in experiment [5] it was 1860 nM; in experiment [2] it was 1.58 µM; in experiment [6], 1870 nM; in [7] it was 1760 nM; in experiment [3], 2.04 µM. The GI50 was 1500 nM in [4], 1.69 µM in experiment [8] and 1620 nM in [9]. In addition, the TGI was 3.65 µM in experiment [1]; 3.43 µM in [5]; 3.24 µM in experiment [2]; 3.62 µM in [6]; 3.64 µM in [7]; 4.28 µM in experiment [3]. The results for the TGI in experiment [4], in experiment [8] and in [9] were 2.9 µM, 3.45 µM and 3.47 µM, respectively.

As to `CC(=O)CC(=O)CCCC(=O)Nc1ccc(Cl)cc1Cl`, the TGI in experiment [1], in experiment [5], in experiment [2], in [6], in [7] and in experiment [3] was over 100 µM each time. Further, the TGI in [4], in [8] and in experiment [9] was over 100 µM in each case.

As to `O=[N+]([O-])c1ccc(OCCNc2cccc3ccccc23)cc1`, the TGI in experiment [1], in [5], in experiment [2], in [6], in [7] and in experiment [3] was over 100 µM throughout. In addition, the TGI in experiment [4], in experiment [8] and in experiment [9] was over 100 µM each time.

As for `CC(C)SC1SCC2C(=O)N(C)C3(CC3C)C(=O)OCC(NC(=O)c3nc4ccccc4cc3O)C(=O)NC(C)C(=O)N(C)C1C(=O)N(C)C1(CC1C)C(=O)OCC(NC(=O)c1nc3ccccc3cc1O)C(=O)NC(C)C(=O)N2C` (configuration not stated), the TGI in experiment [1], in experiment [5], in [2], in experiment [6], in experiment [7] and in experiment [4] was under 0.0001 µM throughout. For the same molecule, in experiment [9], the TGI was under 0.0001 µM.

With `CC1(c2ccccc2)CC12C(=O)NC(=O)NC2=O` (configuration not stated), the TGI in experiment [1], in experiment [5], in experiment [2], in experiment [6], in experiment [7] and in experiment [4] was over 100 µM throughout. The TGI in experiment [8] and in experiment [9] was over 100 µM throughout.

For `CC1=C2C(=CC(C)(CO)C2O)C(=O)C(C)(O)C12CC2` (configuration not stated), the GI50 in experiment [1] is 4.54 nM. Also, the TGI in experiment [1] was 0.0115 µM; in experiment [5], 0.00903 µM; in experiment [2], 0.0144 µM; in experiment [6], 0.015 µM; in experiment [7] it was 0.00996 µM; in [3] it was 0.0046 µM. The figures for the TGI in [4], in experiment [8] and in experiment [9] were 0.019 µM, 0.118 µM and 0.00784 µM, respectively.

Regarding `NC(=O)c1csc(C2O[C@@H](COP(=O)(O)OP(=O)(O)OC[C@H]3OC(n4cnc5c(N)ncnc54)[C@H](O)[C@@H]3O)[C@H](O)[C@@H]2O)n1` (some centres not stated), the TGI in experiment [1], in [5], in experiment [2], in [6], in [7] and in experiment [3] was over 100 µM each time. The TGI in experiment [4], in experiment [8] and in experiment [9] was over 100 µM each time.

For `CC(C)(C)C(=O)Nc1ccccc1Br`, the TGI in [1], in experiment [5], in experiment [2], in experiment [6], in [3] and in [4] was over 100 µM each time. The TGI in experiment [8] and in experiment [9] was over 100 µM in each case.

As for `O=C1C(c2ccc(Cl)cc2)=[N+]([O-])c2ccccc21`, the TGI in experiment [1] was 32.4 µM; in experiment [5] it was over 100 µM; in experiment [6] it was 47 µM; in experiment [7] it was 31.2 µM; in experiment [3], 37.6 µM; in experiment [4] it was 26.8 µM. The TGI in experiment [8] turned out to be 32.4 µM; in experiment [9], 32.2 µM.

Take `COc1ccc(-c2nc3sccn3c2/C=C/C(=O)c2cc(OC)c(OC)c(OC)c2)cc1OC`: the GI50 in experiment [1] was 2410 nM; in experiment [5], 2720 nM; in experiment [6] it was 2160 nM; in [7] it was 2160 nM; in experiment [3] it was 1.99 µM; in experiment [4] it was 2180 nM. In addition, the values for the GI50 in experiment [8] and in experiment [9] were 3.06 µM and 2150 nM, respectively. The TGI in experiment [1] was determined as 5.98 µM; in experiment [5], 4.79 µM; in [6], 9.84 µM; in [7], 5.89 µM; in [3], 3.76 µM; in experiment [4], 5.71 µM. In addition, the results for the TGI in experiment [8] and in experiment [9] were 42.8 µM and 5.55 µM, respectively.
